# Patent US8647828B2, “Intracellular targeting of molecules via syndecan-4” (Szilak Laboratories Bioinformatics & Molecule-Design Ltd., priority 2007, dated 2014)
# Like-named read-outs stand apart in the source and are kept apart here.
# Test system: nucleus of the cell
# Assay type: cell-based
# Conditions: peptide fused to GFP reporter
Substance,localization of GFP reporter chimera in the cell,localization of GFP reporter chimera in the cell (listed as GFP-Ser179Glu mutant chimera)
MYRMKKKDEGSYDL (MYRMKKKDEGSYDLGKKPIYKKAPTNEFYA; from the cytoplasmic domain of syndecan-4 Ser11 of the sequence equals position Ser179 of the full length protein) [SEQ ID NO: 1],homogenously dispersed in the cells,
SEQ ID NO: 2 (MYRMKKKDEGEYDLGKKPIYKKAPTNEFYA; from the cytoplasmic domain of syndecan-4 position Ser179 mutated into Glu),accumulation of the reporter was detected in the nuclei,nuclear accumulation
